The values that follow come from US20120128670A1, “mTOR INHIBITOR AND ANGIOGENESIS INHIBITOR COMBINATION THERAPY” (OSI PHARMACEUTICALS, LLC, priority 2009, published 2012).

Data set [1] relates to H292 lung carcinoma xenografts. Put plainly: Study No. 3: tumor growth inhibition in H292 lung carcinoma xenografts. To be noted: 21 days, single agent.
Text: (§1) Regarding study Nos. 3 and 4, female athymic nude nu/nu CD-1 mice (6-8 wks, 20-29 g, Charles River Laboratories, Wilmington, Mass., USA) were allowed to acclimate for a minimum of one week prior to initiation of the study. To evaluate tumor growth inhibition, cells were harvested from cell culture flasks during exponential cell growth, washed twice with sterile PBS, counted and resuspended in PBS to a suitable concentration before s.c. implantation on the right flank of nu/nu CD-1 mice. Tumors were established to 200±50 mm^3 in size before randomization into treatment groups of 8 mice each.
(§2) All of the Tumor Growth Inhibition (TGI) studies were performed using 20% Trappsol as the vehicle with once-daily oral administration of OSI-027 for 14 or 28 consecutive days. Body weights were determined twice weekly along with tumor volume (V=[length×(width)]/2) measurements using Vernier calipers. Tumor growth inhibition was determined at different time points by the following formula:
(§3) where Tt=median tumor volume of treated at time t; T0=median tumor volume of treated at time 0; Ct=median tumor volume of control at time t; and C0=median tumor volume of control at time 0. The average TGI over the dosing period was then calculated and reported.
(§4) Tumor regressions were determined and calculated as follows using the formula: % Regression=100(T0−Ti)/T0; where T0 is the mean tumor volume for treated group at the initiation of treatment and Ti is the mean tumor volume for that group at time x.
For data set [2], the system named is OVCAR-5 ovarian carcinoma xenografts. In words: Study No. 4: tumor growth inhibition in OVCAR-5 ovarian carcinoma xenografts. To be noted: OVCAR-5 xenografts, 14 days, single agent.
Text: as §1, §2, §3, §4
Data set [3] has as its system SKOV3 ovarian carcinoma xenografts. Put plainly: Study No. 5: tumor growth inhibition in SKOV3 ovarian carcinoma xenografts. As to conditions: single agent.
Experimental: With respect to study No. 5, female athymic nude nu/nu mice (11-12 wks, 20-27 g, Harlan) were allowed to acclimate for a minimum of one week prior to initiation of the study. To evaluate tumor growth inhibition, SKOV3 tumor fragments were implanted s.c. in the right flank of nude mice. Tumors were established to mean tumor volume per treatment group of 84.6 mm^3-85.3 mm^3 of 8 mice each.
(§5) Body weights were determined twice weekly along with tumor volume (V=[length×(width)]/2) measurements using Vernier calipers. Tumor growth inhibition was determined at different time points by the following formula:
as §3, §4
Data set [4] concerns DU145 prostate carcinoma xenografts. To be noted: for % Reg. / Avg. TGI / Morbidity (Mortality): DU145 xenografts.
Experimental: (§6) With respect to study Nos. 1 and 2, male athymic nude nu/nu mice (6-8 wks, 25-32 g, Harlan) were allowed to acclimate for a minimum of one week prior to initiation of the study. To evaluate tumor growth inhibition, DU145 tumor fragments were implanted s.c. in the right flank of nude mice. Tumors were established to 200±50 mm^3 in size before randomization into treatment groups of 8 mice each.
as §2, §3, §4
Data set [5] has the same test system. Put plainly: Study No. 2: tumor growth inhibition in DU145 prostate carcinoma xenografts, extended dosing for 28 days. The class given is in vivo.
Experimental: as §6, §5, §3, §4
Where [6] appears, read: Sutent 40 mg/kg qd, listed as Sunitinib.
[7] abbreviates: Avastin 4 mg/kg q4d (table; text 5 mg/kg q4d×4).
Where [8] appears, read: Avastin 4 mg/kg q4d (table; text 5 mg/kg q4d×4), listed as Bevacizumab.
[9] abbreviates: Avastin 4 mg/kg q4d×4, single agent.
Where [10] appears, read: Avastin 4 mg/kg q4d×8, single agent.
Setting [11] is: OSI-027 50 mg/kg qd oral, 14 days.
Setting [12] is: OSI-027 50 mg/kg qd oral, 14 days, 50 mg/kg.
The mark [13] stands for this setting: OSI-027 50 mg/kg qd oral, 50 mg/kg.
Setting [14] is: OSI-027 50 mg/kg qd oral, 14 days, single agent.
Where [15] appears, read: OSI-027 50 mg/kg qd oral, 28 days, single agent.
The mark [16] stands for this setting: OSI-027 65 mg/kg qd oral, 28 days, single agent.

Read-outs that look alike come from different tables or passages of the source.

`CCN(CC)CCNC(=O)c1c(C)[nH]c(/C=C2\C(=O)Nc3ccc(F)cc32)c1C` [Sutent, sunitinib, reference compound]: the “% Reg.” value in data set [1] (Sutent 40 mg/kg qd) and in data set [2] (Sutent 40 mg/kg qd) was 0% each time. Moreover, the “Avg. TGI” value is given as 55% in data set [1] (Sutent 40 mg/kg qd), 55% in data set [1] (setting [6]), 71% in data set [2] (Sutent 40 mg/kg qd) and 71% in data set [2] (setting [6]). Moreover, the “Morbidity (Mortality)” value in data set [1] (Sutent 40 mg/kg qd) and in data set [2] (Sutent 40 mg/kg qd) was 0/8 throughout.
Regarding “bevacizumab [Avastin, reference compound]”, the “% Reg.” value in data set [3] (setting [7]), in data set [3] (setting [8]), in data set [4] (setting [9]) and in data set [5] (setting [10]) was 0% each time. Moreover, the “Avg. TGI” value in data set [3] (setting [7]) is reported as 67%; in data set [3] (setting [8]) it was 67%; in data set [4] (setting [9]), 16%; in data set [4] (Avastin 4 mg/kg q4d×4, single agent, listed as Bevacizumab), 16%; in data set [5] (setting [10]), 32%; in data set [5] (Avastin 4 mg/kg q4d×8, single agent, listed as Bevacizumab), 32%. Further, the “Morbidity (Mortality)” value in data set [3] (setting [7]), in data set [4] (setting [9]) and in data set [5] (setting [10]) was 0/8 in each case.
Turning to `COc1cccc2cc(-c3nc([C@H]4CC[C@H](C(=O)O)CC4)n4ncnc(N)c34)[nH]c12` [OSI-027, (1R,4R)-4-(4-amino-5-(7-methoxy-1H-indol-2-yl)imidazo[1,5-f][1,2,4]triazin-7-yl)cyclohexanecarboxylic acid], the BWL in data set [3] (setting [11]) was 2%; in data set [1] (OSI-027 50 mg/kg qd oral), 0%; in data set [4] (mouse, in vivo, po, 50 mg/kg), 6%; in data set [5] (setting [15]), 14%; in data set [5] (setting [16]) it was 17%; in data set [2] (OSI-027 50 mg/kg qd oral) it was 0%. Moreover, the “Morbidity (Mortality)” value in data set [3] (setting [11]), in data set [1] (OSI-027 50 mg/kg qd oral), in data set [4] (setting [14]), in data set [5] (setting [15]), in data set [5] (setting [16]) and in data set [2] (OSI-027 50 mg/kg qd oral) was 0/8 each time. For the same compound, the “% Reg.” value amounted to 4% in data set [3] (setting [12]); 8% in data set [1] (setting [13]); 0% in data set [4] (setting [14]); 0% in data set [5] (setting [15]); 0% in data set [5] (setting [16]); 6% in data set [2] (setting [13]). The “Avg. TGI” value in data set [3] (setting [12]) is given as 86%; in data set [1] (setting [13]) it was 83%; in data set [4] (OSI-027 50 mg/kg qd oral, 14 days, single agent, 50 mg/kg) it was 21%; in data set [5] (OSI-027 50 mg/kg qd oral, 28 days, single agent, 50 mg/kg), 40%; in data set [5] (OSI-027 65 mg/kg qd oral, 28 days, single agent, 65 mg/kg), 58%; in data set [2] (setting [13]), 78%.
